Data reported in ChEMBL document CHEMBL1201862, “PubChem BioAssay data set” (2004).
Counter-ions that a name gives are not always drawn.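 The compound was tested at five concentrations on cells cultured in 96-well plates, with a 48-hour exposure period. The concentration for 50% growth inhibition is given as GI50.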 The source made the active and inactive calls. Rule as the data show it: active = GI50 up to about 1.1 µM and inactive = higher.

What was measured:
Assay in all cases: growth of human tumour cells (NCI), 48 h
[1] = test system: XF498
[2] = test system: KM-20L2
[3] = test system: HOP-18
[4] = test system: DMS-114
[5] = test system: DMS-273
[6] = test system: DLD-1
[7] = test system: Hs-578T
[8] = test system: LXFL 529

Question: Which results are given for `CC1(C)N=C(N)N=C(N)N1c1ccc(CCc2ccccc2)cc1`?
Answer: GI50 [1]: < 0.01 µM (active); GI50 [2]: 1.16 µM (inactive); GI50 [3]: 45.7 µM (inactive); GI50 [4]: 0.647 µM (active); GI50 [5]: 0.7 µM (active); GI50 [6]: 15.7 µM (inactive)

Question: For `CNC(=S)N/N=C(\C)c1nc2cccnc2[nH]1`, which GI50 [7] is on record?
Answer: > 50 µM (inactive)

Question: What does the source list for `Cc1cc(N(CCC#N)CCC#N)ccc1/C=C(\NC(=O)/C=C/c1ccccc1)C(=O)Nc1ccccc1Cl`?
Answer: GI50 [8]: > 100 µM (inactive); GI50 [2]: > 100 µM (inactive); GI50 [4]: > 100 µM (inactive); GI50 [5]: > 100 µM (inactive); GI50 [6]: > 100 µM (inactive)

Question: With `CCOC(=O)/C(SC#N)=C(/N)N1CCCC1` as the compound, how does the GI50 [7] read?
Answer: > 100 µM (inactive)

Question: `Nc1nc(Cl)cc(NCC2(CCO)CCC2)n1` was tested. Which GI50 [7] did it give?
Answer: > 100 µM (inactive)

Question: What does the source list for `CCn1c(=O)c(C(=O)O)c(Cl)c2cc3c(cc21)OCO3`?
Answer: GI50 [1]: > 100 µM (inactive); GI50 [2]: > 100 µM (inactive); GI50 [3]: > 100 µM (inactive); GI50 [5]: > 100 µM (inactive); GI50 [6]: > 100 µM (inactive)

Question: Which GI50 [8] does the source give for `COC(=O)C1Cc2c([nH]c3ccccc23)C=N1` (stereo not given) here?
Answer: > 100 µM (inactive)

Question: What about the GI50 [2] of the same compound?
Answer: > 100 µM (inactive)

Question: What about the GI50 [3] of the same compound?
Answer: > 100 µM (inactive)

Question: And the GI50 [4]?
Answer: > 100 µM (inactive)

Question: And the GI50 [5]?
Answer: > 100 µM (inactive)

Question: And the GI50 [6]?
Answer: > 100 µM (inactive)

Question: Which GI50 [1] does the source give for `C/C=C(\C)C(=O)OC1C2C(C)=CC(=O)C(O)C2(C)C2C3(O)OCC24C1OC(=O)C(OC(C)=O)C4C(C)C3O` (stereo not given) here?
Answer: 0.0396 µM (active)

Question: What about the GI50 [2] of the same compound?
Answer: 0.0471 µM (active)

Question: And the GI50 [3]?
Answer: 0.0811 µM (active)

Question: What about the GI50 [4] of the same compound?
Answer: 0.0375 µM (active)

Question: What about the GI50 [5] of the same compound?
Answer: 0.0375 µM (active)

Question: What about the GI50 [6] of the same compound?
Answer: 0.0375 µM (active)

Question: Which GI50 [7] does the source give for `O=C1C(N2CCNCC2)=C(Cl)C(=O)c2ncccc21` here?
Answer: > 10 µM (inactive)

Question: For `O=C(C1C(c2ccccc2)N1C(c1ccccc1)c1ccccc1)C1C(c2ccccc2)N1C(c1ccccc1)c1ccccc1` (stereo not given), which GI50 [7] is on record?
Answer: 20.2 µM (inactive)

Question: How did the GI50 [1] turn out when `CC(C)CCCC(C)[C@H]1CCC(C2C[C@@H](O)[C@@H]3CC(O)[C@@H](O)C[C@]3(CO)C2=O)[C@]1(C)CCO` (stereo not given in full) was run?
Answer: > 42.9 µM (inactive)

Question: And the GI50 [2]?
Answer: 20 µM (inactive)

Question: And the GI50 [3]?
Answer: 23.7 µM (inactive)

Question: What about the GI50 [4] of the same compound?
Answer: 20.6 µM (inactive)

Question: What about the GI50 [5] of the same compound?
Answer: 32.3 µM (inactive)

Question: What about the GI50 [6] of the same compound?
Answer: 31.7 µM (inactive)

Question: With `CC(C)CC1[C@@H](OCc2ccccc2)COS(=O)(=O)N1Cc1ccccc1` (stereo not given in full) as the compound, how does the GI50 [7] read?
Answer: 14.7 µM (inactive)

Question: Which GI50 [7] does the source give for `O=S(=O)(O)c1ccc2c(/N=N/c3cccc4ccccc34)c(O)c(S(=O)(=O)O)cc2c1` here?
Answer: > 100 µM (inactive)

Question: How did the GI50 [7] turn out when `O=S(=O)(O)c1ccc2cc(/N=N\c3cc(S(=O)(=O)O)c4cccnc4c3O)ccc2c1` was run?
Answer: > 100 µM (inactive)

Question: `CC(NNC(=O)c1cc[n+]([BH2-]C#N)cc1)c1ccc(Cl)cc1Cl` (stereo not given) was tested. Which GI50 [7] did it give?
Answer: 39.5 µM (inactive)

Question: `Cc1ccnn1CCc1ccc(Cl)cc1Cl` was tested. Which GI50 [7] did it give?
Answer: 22.9 µM (inactive)

Question: `COc1cc(-c2cc(O)c3cc4c(cc3n2)OCO4)cc(OC)c1OC` was tested. Which GI50 [8] did it give?
Answer: > 100 µM (inactive)

Question: And the GI50 [1]?
Answer: 29.8 µM (inactive)

Question: What about the GI50 [3] of the same compound?
Answer: 72.8 µM (inactive)

Question: What about the GI50 [5] of the same compound?
Answer: 46.2 µM (inactive)

Question: What about the GI50 [6] of the same compound?
Answer: > 100 µM (inactive)

Question: `CCOC(=O)c1sc2nc(SC)nc3c2c1NC(=O)CN3c1cccc(F)c1` was tested. Which GI50 [7] did it give?
Answer: 29.2 µM (inactive)

Question: Which GI50 [8] does the source give for `CCOC(=O)CSC(=O)NCCCl` here?
Answer: > 100 µM (inactive)

Question: What about the GI50 [2] of the same compound?
Answer: > 100 µM (inactive)

Question: What about the GI50 [4] of the same compound?
Answer: > 100 µM (inactive)

Question: What about the GI50 [5] of the same compound?
Answer: > 100 µM (inactive)

Question: What about the GI50 [6] of the same compound?
Answer: > 100 µM (inactive)

Question: How did the GI50 [7] turn out when `CC(=O)OCc1ccc(-c2nc(C#N)c(N)o2)o1` was run?
Answer: > 10 µM (inactive)

Question: `COc1cc(C(=O)C2CC3(CCC2(O)c2cc(OC)c(OC)c(OC)c2)CC(=O)Nc2ccccc2C3=O)cc(OC)c1OC` (stereo not given) was tested. Which GI50 [7] did it give?
Answer: 91 µM (inactive)

Question: With `O=C(CCc1ccccc1)CC1OC(=O)C(Cl)=C1Cl` (stereo not given) as the compound, how does the GI50 [8] read?
Answer: 15.8 µM (inactive)

Question: And the GI50 [1]?
Answer: 25.7 µM (inactive)

Question: And the GI50 [2]?
Answer: 13.2 µM (inactive)

Question: And the GI50 [3]?
Answer: 23.3 µM (inactive)

Question: What about the GI50 [5] of the same compound?
Answer: 22.3 µM (inactive)

Question: And the GI50 [6]?
Answer: 18 µM (inactive)

Question: How did the GI50 [1] turn out when `OCC1OC(n2cnc3c2NC=NC[C@H]3O)C(O)C1O` (stereo not given in full) was run?
Answer: > 274 µM (inactive)

Question: And the GI50 [2]?
Answer: 444 µM (inactive)

Question: What about the GI50 [3] of the same compound?
Answer: 71.3 µM (inactive)

Question: And the GI50 [4]?
Answer: > 450 µM (inactive)

Question: What about the GI50 [5] of the same compound?
Answer: 303 µM (inactive)

Question: And the GI50 [6]?
Answer: 300 µM (inactive)

Question: `CCCCOC(=O)CC(CC(=O)OCCCC)(OC(C)=O)C(=O)OCCCC` [ACETYLTRIBUTYL CITRATE] was tested. Which GI50 [7] did it give?
Answer: > 123 µM (inactive)

Question: With `Oc1nc(-c2ccc3ccccc3c2)nc2ccccc12` as the compound, how does the GI50 [7] read?
Answer: 24.3 µM (inactive)

Question: `COc1cc(C2C3=C(N=C4SC(C(C)=O)=C(C)N42)c2ccccc2CC3)cc(OC)c1OC` (stereo not given) was tested. Which GI50 [7] did it give?
Answer: 50.4 µM (inactive)

Question: `OCCN1c2ccccc2Sc2ccccc21` was tested. Which GI50 [7] did it give?
Answer: > 10 µM (inactive)

Question: `CN(C)N1C(=O)S/C(=C\c2ccc([N+](=O)[O-])cc2)C1=O` was tested. Which GI50 [7] did it give?
Answer: > 100 µM (inactive)

Question: For `Cc1c(S(=O)(=O)c2ccccc2)c(N)n(CCN(C)C)c1C`, which GI50 [7] is on record?
Answer: > 100 µM (inactive)

Question: With `CCc1ccc(COC(=O)C2=C(C)NC(C)=C(C(=O)OCc3ccc(CC)cn3)C2C2=COCCO2)nc1` as the compound, how does the GI50 [7] read?
Answer: 14 µM (inactive)

Question: `COc1ccc(C(=O)C(C(=O)C(=O)NC2C3CC4CC(C3)CC2C4)c2ccc(OC)cc2)cc1` (stereo not given) was tested. Which GI50 [8] did it give?
Answer: > 100 µM (inactive)

Question: And the GI50 [2]?
Answer: > 100 µM (inactive)

Question: And the GI50 [3]?
Answer: > 100 µM (inactive)

Question: What about the GI50 [4] of the same compound?
Answer: > 100 µM (inactive)

Question: And the GI50 [5]?
Answer: > 100 µM (inactive)

Question: And the GI50 [6]?
Answer: > 100 µM (inactive)

Question: Which GI50 [7] does the source give for `OC[P+](CO)(CO)C12CC3CC(CC(C3)C1)C2` here?
Answer: > 100 µM (inactive)

Question: `CN1c2ccccc2SC2C(c3ccccc3)=NOC21` (stereo not given) was tested. Which GI50 [7] did it give?
Answer: 29 µM (inactive)

Question: Which GI50 [7] does the source give for `C=C1C(=O)OC2C1C(OC(=O)/C(C)=C/C)CC(O)(CCl)C1C(O)C=C(C)C21O` (stereo not given) here?
Answer: > 62.1 µM (inactive)
